Values quoted from earlier work as cited in patent publication US8138216B2, “Cannabinoid receptor antagonists/inverse agonists useful for treating metabolic disorders, including obesity and diabetes” (Jenrin Discovery, Inc., priority 2007, dated 2012).

Test system: patients with type 2 diabetes
Conditions: after six months of treatment; baseline value 7.9; patients not treated with other anti-diabetic medications; placebo 0.3%

Q: With `Cc1c(C(=O)NN2CCCCC2)nn(-c2ccc(Cl)cc2Cl)c1-c1ccc(Cl)cc1` [rimonabant] as the molecule, how does the HbA1c levels lowered read?
A: 0.8%
